Measured values reported in publication PMC8165744, “Identification of an Alternative Glycyrrhizin Metabolite Causing Liquorice-Induced Pseudohyperaldosteronism and the Development of ELISA System to Detect the Predictive Biomarker” (Frontiers in Pharmacology, 2021).
Read-outs that look alike come from different tables or passages of the source.

How the values were obtained:
[1] = elimination of GA metabolites in SD rats intravenously injected with GA; type: in vivo, Sprague-Dawley (SD) rats; conditions: female SD rats, GA iv, faeces collected 24 h after injection
From the text: (§1) Briefly, after diluting serum and urine samples with water to obtain suitable concentrations, they were digested with subtilisin (0.91 U/ml), followed by the addition of astragaloside IV (used as an internal standard; Fujifilm Wako Pure Chemicals, Osaka, Japan), and deproteinized using 80% ethanol. […] The transitions (precursor to daughter) monitored and retention times were as follows: ESI(+), 743.4 to 567.5 m/z (35 and 25 V for cone voltage and collision energy, respectively) for compound 1 (8.1 min); ESI(–), 565.5 to 96.5 m/z (80 and 60 V) for 2 (9.6 min); ESI(–), 549.5 to 96.5 m/z (80 and 60 V) for 3 (15.4 min); ESI(+), 727.3 to 551.2 m/z (30 and 25 V) for 4 (11.3 min); ESI(+), 647.6 to 453.6 m/z (40 and 20 V) for 3MGA (15.0 min); ESI(+), 471.3 to 91.0 m/z (40 and 20 V) for GA (13.4 min); ESI(+), 823.5 to 453.6 m/z (30 and 20 V) for GL (18.4 min); and ESI(+), 785.4 to 143.0 m/z (30 and 20 V) for astragaloside IV (3.0 min). Linear regressions over the concentration range of 2 nM to 2 µM for each compound were examined using the peak-area ratio of the compounds to their internal standards and the least-squares method (r ^ 2 > 0.98). The detection limits for 1, GL, and GA were 6.4 nM, and those for 2, 3, and 4, and 3MGA were 3.2 nM.
FIGURE 6 Elimination of glycyrrhizin (GL) metabolites into bile in Sprague-Dawley (SD) rats. Female SD rats (10 week-old) were anesthetized using intraperitoneal injection of urethane (1 g/kg), and biliary tracts were cannulated. […] Concentrations of GA metabolites were measured using liquid chromatography-tandem mass spectrometry (LC-MS/MS) and accumulated elimination of GA-metabolites are means ± standard error (S.E: n = 3).

[2] = pharmacokinetics of GA metabolites in EHBRs orally treated with GA; type: in vivo, Eisai hyperbilirubinuria rats (EHBRs); conditions: for concentration at 12 h: Eisai hyperbilirubinuria rat (EHBR), rat, plasma, 200 mg/kg, GA 0.20 g/kg oral, read-out: plasma concentration 12 h after oral administration of GA
Method: Pharmacokinetic Experiments of GA Metabolites in EHBRs Orally Treated With GA
Male and female EHBRs (9 week-old) were anaesthetized by an intraperitoneal injection of urethane (1 g/kg) and their jugular veins were exposed. GA suspended in 0.5% carboxymethylcellulose was then administered orally (200 mg/kg) to the unconscious rats, and blood samples were collected from the jugular vein while urine samples were collected using a metabolic cage at appropriate times over a 12 h period.
LC-MS/MS Analysis for GA Metabolites
as §1
FIGURE 5 Pharmacokinetic profiles of glycyrrhizin (GL) metabolites in female (A–C) and male (D–F) Eisai hyperbilirubinuria rats (EHBRs). […] Data of GA, 3MGA, 1, 2, and 3 in (A) and GA, 3MGA, 2, and 3 for (D) are relatively small; their magnified graphs are shown in (B,E), respectively. Concentrations of GA metabolites were measured using liquid chromatography-tandem mass spectrometry (LC-MS/MS), and data are means ± standard error (S.E: n = 4).

[3] = test system: mineralocorticoid receptor (MR); design: method as in earlier work; conditions: ref Ulmann et al., 1975; Armanini et al., 1983; Monder et al., 1989; cited from earlier work
anti-3MGA-mAb = assay: competitive ELISA using anti-3MGA-mAb; type: binding; conditions: competitive ELISA in aqueous solution, 3MGA calibrated to 100%
Method: ELISA System Using anti-3MGA-mAb
An ELISA system to measure the cross-reactivity of compounds 3 and 4 by using 3MGA-HSA-conjugate and anti-3MGA-mAb was used according to the protocol in our previous study ([Ishiuchi et al., 2019]). To measure the concentration of 3 in human serum samples using the system ELISA, 3 was dissolved in normal human serum (Sigma) to prepare standard solutions (16 nM–2.0 µM) and the samples or standard solutions (each 10 µl) and ethanol (40 µl) were well mixed and centrifuged (1.2 × 10^4 × g for 7 min). The supernatant was dried up under nitrogen flow at 40°C overnight, and the residue was dissolved in Can Get Signal® Solution 1 (Toyobo Co., Ltd: Osaka, Japan) (50 µl). […] When the observed values were more than 400 nM, the deproteinized serum samples were further diluted with Can Get Signal® Solution 1 for two or four times and analyzed again to observe values from 15.6 to 400 nM.
FIGURE 4 Development of enzyme-linked immunosorbent assay (ELISA) system to measure concentrations of 3 in human serum samples using anti-18β-glycyrrhetyl-3-O-glucuronide (3MGA)-monoclonal antibody (mAb). […] Standard lines between absorbance and concentrations of compound 3 are shown (D) Accuracy of ELISA system in measuring concentrations of 3 in human serum samples using anti-3MGA-mAb. Human serum samples were deproteinized, and concentration of 3 was measured using ELISA system. […]

[4] = design: method as in Takahashi et al., 2019; conditions: ref Takahashi et al., 2019, cited from earlier work

Structure (SMILES)	accumulative elimination in faeces [1]	blood concentration in male rats relative to female rats ([2]; EHBRs, 12 h after oral GA)	concentration at 12 h ([2]; female EHBRs) [nM]	concentration at 12 h ([2]; male EHBRs) [nM]	binding activity (ED50) on mineralocorticoid receptor [3]	cross-reactivity to anti-3MGA-mAb (anti-3MGA-mAb) [%]	serum concentration of 3 relative to that of GA (fold higher) ([4]; human serum)	maximum serum concentration ([4]; previous clinical study) [µM]
CC1(C)[C@@H](OS(=O)(=O)O)CC[C@]2(C)[C@H]3C(=O)C=C4[C@@H]5C[C@@](C)(C(=O)O[C@@H]6O[C@H](C(=O)O)[C@@H](O)[C@H](O)[C@H]6O)C[C@H](O)[C@]5(C)CC[C@@]4(C)[C@]3(C)CC[C@@H]12 [Compound 1, 22α-hydroxy-18β-glycyrrhetyl-3-O-sulfate-30-glucuronide]	below detectable levels	approximately 7 fold	32000	177000				
CC1(C)[C@@H](OS(=O)(=O)O)CC[C@]2(C)[C@H]3C(=O)C=C4[C@@H]5C[C@@](C)(C(=O)O)C[C@H](O)[C@]5(C)CC[C@@]4(C)[C@]3(C)CC[C@@H]12 [Compound 2, 22α-hydroxy-18β-glycyrrhetyl-3-O-sulfate]	0.86 ± 0.1 nmol		10000	8200				
CC1(C)[C@@H](O[C@@H]2O[C@H](C(=O)O)[C@@H](O)[C@H](O)[C@H]2O)CC[C@]2(C)[C@H]3C(=O)C=C4[C@@H]5C[C@@](C)(C(=O)O)CC[C@]5(C)CC[C@@]4(C)[C@]3(C)CC[C@@H]12 [Compound 3MGA, 18β-glycyrrhetyl-3-O-glucuronide, reference compound]	below detectable levels		100	1600				
CC1(C)[C@@H](OS(=O)(=O)O)CC[C@]2(C)[C@H]3C(=O)C=C4[C@@H]5C[C@@](C)(C(=O)O)CC[C@]5(C)CC[C@@]4(C)[C@]3(C)CC[C@@H]12 [Compound 3, 18β-glycyrrhetyl-3-O-sulfate]	1.8 ± 0.3 nmol		2000	2200		23	1.5–2 fold	4.2

Now from value to molecule, other results behind:

accumulative elimination in faeces [1]	blood concentration in male rats relative to female rats ([2]; EHBRs, 12 h after oral GA)	concentration at 12 h ([2]; female EHBRs) [nM]	concentration at 12 h ([2]; male EHBRs) [nM]	Structure (SMILES)	binding activity (ED50) on mineralocorticoid receptor [3]	cross-reactivity to anti-3MGA-mAb (anti-3MGA-mAb) [%]	serum concentration of 3 relative to that of GA (fold higher) ([4]; human serum)	maximum serum concentration ([4]; previous clinical study) [µM]
below detectable levels				CC1(C)[C@@H](O[C@H]2O[C@H](C(=O)O)[C@@H](O)[C@H](O)[C@H]2O[C@@H]2O[C@H](C(=O)O)[C@@H](O)[C@H](O)[C@H]2O)CC[C@]2(C)[C@H]3C(=O)C=C4[C@@H]5C[C@@](C)(C(=O)O)CC[C@]5(C)CC[C@@]4(C)[C@]3(C)CC[C@@H]12 [GL, glycyrrhizin]				
9.8 ± 1.3 nmol		2700	2600	CC1(C)[C@@H](O)CC[C@]2(C)[C@H]3C(=O)C=C4[C@@H]5C[C@@](C)(C(=O)O)CC[C@]5(C)CC[C@@]4(C)[C@]3(C)CC[C@@H]12 [GA, glycyrrhetinic acid, reference compound]	about 100 µM			
